In patent US20220218725A1, “METHODS AND MATERIALS FOR TREATING CANCER” (Mayo Foundation for Medical Education and Research, priority 2019, published 2022):

Assays:
[1] = tested on: L3.6 cells; experiment: Cell viability, Annexin V/PI assay; type: cell-based; details: L3.6 (Pancreatic cancer); 48 hours; KPT-330 0.1-1.0 μM, CS 1-3 mM, single agent or combination
Protocol: KPT-330 purchased from Selleckchem (cat no: S7252) was dissolved in DMSO while CS (Santa Cruz, Calif.S 2016-36-6), sodium salicylate (Sigma-Aldrich, cat no: S3007), acetyl salicylate (Sigma-Aldrich, cat no: CAS 50-78-2) was diluted in PBS. […] The concentration range of KPT-330 was 0.05-1.0 μM while CS was 1-3 mM were used for ex vivo treatment and incubation time ranged from 24 hours to 72 hours.

[2] = tested on: JeKo-1 cells; experiment: Cell viability, Annexin V/PI assay (also IC50 and combination index); type: cell-based; details: for % viability normalized for respective controls: JeKo-1 (MCL), 48 hours, KPT-330 0.1-1.0 μM, CS 1-3 mM, single agent or combination
Protocol: To assess apoptosis and cellular proliferation, all cell lines were treated with CRM 1 inhibitors (concentration ranging from 0.05-2 μM) and salicylates at concentrations ranging from (0.001-10 mM) for 48 hours before analysis was performed. DMSO was used to substitute the drug in controls.
After 48 hours incubation, cells were washed with Annexin buffer solution and stained with both propidium iodide (PI) and FITC-Annexin V (Life Technologies), and assayed on a BD Accuri flow cytometer (BD Biosciences). Apoptosis results were analyzed with BD CellQuest software. For cell cycle analysis, Jeko-1 cell line was intubated with CRM 1 inhibitors (concentrations ranging from […]) and salicylates (concentration at 3 mM) and Ly-1 cell line was intubated with CRM 1 inhibitors (concentrations ranging from 0.1-2.0 μM) and salicylates (concentration at 0.5-5 mM) for 24 and 48 hours and then fixed with 95% cold ethanol and kept at 4 C° for 24 h and subsequently underwent cell cycle analysis after PI staining and analysis was performed using BD FACS caliber flow cytometer (BD Biosciences) and FlowJo software (Tree Star).
Cell lines were purchased from the cell line repositories ATCC (Manassas, Va.) or DSMZ (Braunschweig, Germany). These included MCL cell lines: JeKo-1, Mino; TCL cell lines: Karpas-299, SR-786; DLBCL cell lines: OCI-Ly1 (LY-1), OCI-Ly3 (LY-3), OCI-Ly19 (LY-19), SU-DHL-6 (DHL-6); MM cell lines: RPMI, U266, OPM2, Xgl, KMS2; ALL cell lines: CRL-1783; non-small cell lung cancer: NCI-H460, A549, HCC827; small cell lung cancer: H1048; sarcoma: Fuji, SW872. Cell lines were cultured according to instruction.
KPT-330 purchased from Selleckchem (cat no: S7252) was dissolved in DMSO while CS (Santa Cruz, Calif.S 2016-36-6), sodium salicylate (Sigma-Aldrich, cat no: S3007), acetyl salicylate (Sigma-Aldrich, cat no: CAS 50-78-2) was diluted in PBS. Ketorolac (Sigma-Aldrich, cat no: 1356665), Bortezomib (Selleckchem, cat no: S1013), gemcitabine (Sigma-Aldrich, cat no: G6423), Leptomycin-B (Sigma-Aldrich, cat no: L2913-2X) and KPT-185 (Selleckchem, cat no: S7125) were dissolved in DMSO. The concentration range of KPT-330 was 0.05-1.0 μM while CS was 1-3 mM were used for ex vivo treatment and incubation time ranged from 24 hours to 72 hours. For the PARP inhibitor assay, olaparib 10 μM (SelleckChem, cat no: AZD2281 Ku-0059436) was used.
The viability assessment for cell lines and primary patients samples were conducted with the Annexin V/PI method.
Jeko-1 and OCI-Ly1 cell lines were used to assess the IC50. Keeping CS at 3 mM, KPT-330 was titrated. Relative IC50 was calculated as described elsewhere (see, e.g., Sebaugh et al., Pharmaceutical statistics 10:128-134 (2011)). The combination index was calculated as described elsewhere (see, e.g., Chou et al., Cancer Res 70:440-446 (2010)).

[3] = tested on: WM primary patient sample; experiment: Viability of primary patient samples, Annexin V/PI assay; type: cell-based, human; details: 48 h, KPT-330 0.05-0.5 μM, CS 1-3 mM
Description: (§1) Primary patient samples were obtained. The mononuclear cells were obtained from bone marrow, spleen, peripheral blood and lymph nodes as follows. Freshly obtained tissue (lymph node, spleen, bone marrow) was placed in mesh screen and using a syringe plunger, the tissue was pressed into a petri dish. Samples were then rinsed through the screen using measured amounts of RPMI until all tissue has been pressed through. […] Subsequently the mononuclear cells were isolated via centrifugation in the presence of ficoll and this step was again repeated following washing the cells with RPMI media.
(§2) To isolate peripheral blood mononuclear cells (PBMCs), freshly obtained patient blood sample of patients were centrifuged in the present of ficoll and this step was repeated twice following washing the cells with PBS. Following isolating the mononuclear cells, the viability was assessed and ascertained proper viability above 80% prior to conduct respective experiments. Non-malignant cells were confirmed not to have a malignant condition by pathology review of the tissue.

[4] = tested on: MZL primary patient samples; experiment: as above; type: cell-based, human; details: 48 h, KPT-330 0.05-0.5 μM, CS 1-3 mM
Description: as §1, §2

[5] = tested on: MCL primary patient samples; experiment: as above; type: cell-based, human; details: 48 h, KPT-330 0.05-0.5 μM, CS 1-3 mM
Description: as §1, §2

[6] = tested on: Lymphoplasmacytic lymphoma primary patient sample; experiment: as above; type: cell-based, human; details: Lymphoplasmacytic lymphoma with IgG monoclonal gammopathy; 48 h; KPT-330 0.05-0.5 μM, CS 1-3 mM
Description: as §1, §2

[7] = tested on: MM/plasma cell leukemia primary patient samples; experiment: as above; type: cell-based, human; details: 48 h, KPT-330 0.05-0.5 μM, CS 1-3 mM
Description: as §1, §2

[8] = tested on: CLL primary patient samples; experiment: as above; type: cell-based, human; details: TP53 deleted, 48 h, KPT-330 0.05-0.5 μM, CS 1-3 mM
Description: as §1, §2

[9] = tested on: Peripheral T-cell lymphoma primary patient samples; experiment: as above; type: cell-based, human; details: 48 h, KPT-330 0.05-0.5 μM, CS 1-3 mM
Description: as §1, §2

[10] = tested on: T-cell Lymphoblastic leukemia primary patient sample; experiment: as above; type: cell-based, human; details: Relapsed T-cell Lymphoblastic leukemia; 48 h; KPT-330 0.05-0.5 μM, CS 1-3 mM
Description: as §1, §2

[11] = tested on: DLBCL primary patient samples; experiment: as above; type: cell-based, human; details: 48 h, KPT-330 0.05-0.5 μM, CS 1-3 mM
Description: as §1, §2

[12] = Relapsed splenic MZL (sample of r15)
[13] = Relapsed splenic MZL (sample of r16)
[14] = Relapsed splenic MZL (sample of r18)
[15] = Relapssd splenic MZL (sample of r17)
[16] = Relapsed MCL resistant to Ibrutinib
[17] = Kappa light chain myeloma/plasma cell leukemia with I(11; 14), standard risk
[18] = MM/plasma cell leukemia, Relapsed with high risk cytogenetics (sample of r32)
[19] = MM/plasma cell leukemia, Relapsed with high risk cytogenetics (sample of r33)
[20] = MM/plasma cell leukemia, Relapsed with high risk cytogenetics (sample of r34)
[21] = MM/plasma cell leukemia, Relapsed with high risk cytogenetics (sample of r38)
[22] = Relapsed CLL: Ibrutinib and Idalalisib resistant
[23] = Relapsed CLL: Ibrutinib resistent
[24] = Relapsed Peripheral T-cell lymphoma (sample of r30)
[25] = Relapsed Peripheral T-cell lymphoma (sample of r31)
[26] = Double expresser transformed from CLL/SLL
[27] = Double hit, replaced from RCHOP, ASCT and BR
[28] = NOS, single agent or combination

SMILES | % viability normalized for respective controls [1] | % viability normalized for respective controls [2] | % viability normalized for respective controls [3] | % viability normalized for respective controls ([4]; Relapsed nodal MZL) | % viability normalized for respective controls [4, 12] | % viability normalized for respective controls [4, 13] | % viability normalized for respective controls [4, 14] | % viability normalized for respective controls [4, 15] | % viability normalized for respective controls [5, 16] | % viability normalized for respective controls ([5]; Relapsed MCL) | % viability normalized for respective controls [6] | % viability normalized for respective controls [7, 17] | % viability normalized for respective controls [7, 18] | % viability normalized for respective controls [7, 19] | % viability normalized for respective controls [7, 20] | % viability normalized for respective controls [7, 21] | % viability normalized for respective controls [8, 22] | % viability normalized for respective controls [8, 23] | % viability normalized for respective controls [9, 24] | % viability normalized for respective controls [9, 25] | further results
C[N+](C)(C)CCO.O=C([O-])c1ccccc1O [CS, choline salicylate] | 72% | 93% | 79% | 65% | 63% | 71% | 65% | 82% | 91% | 68% | 88% | 64% | 58% | 90% | 69% | 99% | 78% | 75% | 64% | 73% | % viability normalized for respective controls [10]: 82%; % viability normalized for respective controls [11, 26]: 65%; % viability normalized for respective controls ([11]; Double expresser): 80%; % viability normalized for respective controls ([11]; Double hit transformed from FL): 71%; % viability normalized for respective controls [11, 27]: 86%; % viability normalized for respective controls [11, 28]: 76%
O=C(/C=C\n1cnc(-c2cc(C(F)(F)F)cc(C(F)(F)F)c2)n1)NNc1cnccn1 [KPT-330, (Z)-3-[3-[3,5-bis (trifluoromethyl)phenyl]-1,2,4-triazol-1-yl]-N′-pyrazin-2-ylprop-2-enehydrazide] | 61% | 95% | 85% | 58% | 55% | 67% | 67% | 70% | 94% | 89% | 79% | 55% | 79% | 91% | 93% | 96% | 72% | 99% | 73% | 68% | IC50 ([2]; Homo sapiens, JeKo-1 (MCL cells), 72 hours, selinexor titrated alone or with CS kept at 3 mM): 1.3 µM; % viability normalized for respective controls [10]: 70%; % viability normalized for respective controls [11, 26]: 68%; % viability normalized for respective controls ([11]; Double expresser): 74%; % viability normalized for respective controls ([11]; Double hit transformed from FL): 82%; % viability normalized for respective controls [11, 27]: 81%; % viability normalized for respective controls [11, 28]: 63%
